Patent publication US20250313563A1, “GLYCOGEN SYNTHASE KINASE 3 INHIBITORS AND USES THEREOF” (The Broad Institute, Inc., priority 2022, published 2025)
Read-outs that look alike come from different tables or passages of the source.

Assays:
[1] = target: GSK3α (GST-full length GSK3α) (Homo sapiens (Human), UniProt P49840); assay: GSK3α TR-FRET kinase assay; format: biochemical
In short: (§1)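 IC50s came from the normalized 665/615 TR-FRET ratio after Tb-anti-pSer641 antibody and streptavidin-d2 detection of phosphorylated biotin-glycogen synthase peptide (200 nM). ATP was 4 μM for GSK3α, 2 μM for GSK3b, or 1 mM; 1 nM enzyme, 100 min, ambient, pH 7.5, after 30-min compound preincubation.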

[2] = target: GSK3b (GST-full length GSK3b) (Homo sapiens (Human), UniProt P49841); assay: GSK3b TR-FRET kinase assay; format: biochemical
In short: as §1

[3] = 1 nM GSK3α, 4 μM ATP, 30 minute preincubation, Table 16, read-out: GSK3-A TR-FRET BIOCHEMICAL (TR-FRET)
[4] = 1 nM GSK3b, 2 μM ATP, 30 minute preincubation, Table 16, read-out: GSK3-B TR-FRET BIOCHEMICAL (TR-FRET)
[5] = 1 nM GSK3α, 4 μM ATP, 30 minute preincubation, geometric mean, read-out: GSK3-A TR-FRET BIOCHEMICAL (TR-FRET), GMean, IC50
[6] = 1 nM GSK3b, 2 μM ATP, 30 minute preincubation, geometric mean, read-out: GSK3-B TR-FRET BIOCHEMICAL (TR-FRET), GMean, IC50
[7] = 1 nM GSK3α, 4 μM ATP, 30 minute preincubation, Table 16, read-out: GSK3-A TR-FRET BIOCHEMICAL (TR-FRET), IC50
[8] = 1 nM GSK3b, 2 μM ATP, 30 minute preincubation, Table 16, read-out: GSK3-B TR-FRET BIOCHEMICAL (TR-FRET), IC50
[9] = read-out: GSK3-A (TR-FRET 1 mM ATP), GMean, IC50, 1 mM ATP, geometric mean
[10] = read-out: GSK3-B (TR-FRET 1 mM ATP), GMean, IC50, 1 mM ATP, geometric mean
[11] = 1 nM GSK3α, 4 μM ATP, 30 minute preincubation, read-out: GSK3-A TR-FRET BIOCHEMICAL (TR-FRET), IC50
[12] = 1 nM GSK3b, 2 μM ATP, 30 minute preincubation, read-out: GSK3-B TR-FRET BIOCHEMICAL (TR-FRET), IC50

Chain of GSK3α (GST-full length GSK3α) (P49840 whole entry): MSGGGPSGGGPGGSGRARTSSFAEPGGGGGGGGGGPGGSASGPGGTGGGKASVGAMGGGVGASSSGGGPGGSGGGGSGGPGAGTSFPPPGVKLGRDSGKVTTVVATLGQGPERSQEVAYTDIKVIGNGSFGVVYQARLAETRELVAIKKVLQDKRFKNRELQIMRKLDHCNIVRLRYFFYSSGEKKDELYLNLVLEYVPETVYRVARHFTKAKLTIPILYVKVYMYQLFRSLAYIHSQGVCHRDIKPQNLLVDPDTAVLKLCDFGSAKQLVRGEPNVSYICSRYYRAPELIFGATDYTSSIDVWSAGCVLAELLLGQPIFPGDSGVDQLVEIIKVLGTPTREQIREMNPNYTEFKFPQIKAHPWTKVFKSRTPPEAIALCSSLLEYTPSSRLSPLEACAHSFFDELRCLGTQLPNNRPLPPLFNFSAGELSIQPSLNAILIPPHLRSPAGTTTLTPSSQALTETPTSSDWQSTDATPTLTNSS
Chain of GSK3b (GST-full length GSK3b) (P49841 whole entry): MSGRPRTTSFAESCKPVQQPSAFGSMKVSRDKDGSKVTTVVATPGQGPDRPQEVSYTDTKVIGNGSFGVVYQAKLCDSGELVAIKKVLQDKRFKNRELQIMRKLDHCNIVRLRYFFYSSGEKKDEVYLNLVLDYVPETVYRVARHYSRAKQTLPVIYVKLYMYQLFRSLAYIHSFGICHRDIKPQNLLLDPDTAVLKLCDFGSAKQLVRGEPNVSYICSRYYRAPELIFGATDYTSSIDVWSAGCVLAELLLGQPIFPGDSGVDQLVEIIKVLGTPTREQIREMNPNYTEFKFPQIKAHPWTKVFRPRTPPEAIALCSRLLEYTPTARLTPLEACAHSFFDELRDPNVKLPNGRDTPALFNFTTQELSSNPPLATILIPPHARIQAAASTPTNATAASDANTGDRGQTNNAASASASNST

Structure (SMILES) | IC50 [1, 5] [µM] | IC50 [2, 6] [µM] | IC50 [1, 7] [µM] | IC50 [2, 8] [µM] | also measured
Cc1ccc(S(=O)(=O)N2CCC3(CC2)C2=C(CC(C)(C)CC2=O)Nc2n[nH]cc23)s1 [Compound 945672] |  |  |  |  | IC50 [1, 3]: ≤ 0.1 µM; IC50 ([1]; GSK3-A (TR-FRET 1 mM ATP), GMean, IC50, 1 mM ATP, geometric mean): 0.1 to 1 µM; IC50 [2, 4]: ≤ 0.1 µM; IC50 ([2]; GSK3-B (TR-FRET 1 mM ATP), GMean, IC50, 1 mM ATP, geometric mean): 0.1 to 1 µM
CCC1(c2cccc(-c3cnn(C4CC4)c3)c2)C2=C(CC(C)(C)CC2=O)Nc2n[nH]cc21 (centres unmarked) [Compound 913028] |  |  | ≤ 0.1 | ≤ 0.1 | 
CCN1CC2(C1)C1=C(CC(C)(C)CC1=O)Nc1n[nH]cc12 [Compound 929448] |  |  | > 5 | > 5 | 
CC[C@@]1(c2cccc(S(=O)(=O)CC3CC3)c2)C2=C(CC(C)(C)CC2=O)Nc2n[nH]cc21 [Compound 917151] |  |  | 1 to 5 | > 5 | 
O=C1CC2(CCCCC2)CC2=C1C1(CCOCC1)c1c[nH]nc1N2 [Compound 893307] |  |  |  |  | IC50 [1, 3]: ≤ 0.1 µM; IC50 [2, 4]: 0.1 to 1 µM
CC[C@]1(c2cccc(-c3cc(C)nn3C)c2)C2=C(Nc3n[nH]cc31)[C@H](F)C(C)(C)CC2=O [Compound 947656] |  |  |  |  | IC50 [1, 3]: 0.1 to 1 µM; IC50 [2, 4]: > 5 µM
CCC1(c2cccc(N(C)c3ccnc(C(F)(F)F)c3)c2)C2=C(CC(C)(C)CC2=O)Nc2n[nH]cc21 (centres unmarked) [Compound 913254] |  |  | ≤ 0.1 | ≤ 0.1 | 
CCC1(c2cccc(-c3ccnn3C(C)C)c2)C2=C(CC(C)(C)CC2=O)Nc2n[nH]cc21 (centres unmarked) [Compound 929399] |  |  | ≤ 0.1 | ≤ 0.1 | 
CCC1(c2cccc(C3CCOCC3)c2)C2=C(CC(C)(C)CC2=O)Nc2n[nH]cc21 (centres unmarked) [Compound 819638] | ≤ 0.1 | 0.1 to 1 |  |  | IC50 [1, 9]: 0.1 to 1 µM; IC50 [2, 10]: > 5 µM
CC1(c2ccccc2)C2=C(CC3(CCCC3)CC2=O)Nc2n[nH]cc21 (centres unmarked) [Compound 789460] | 0.1 to 1 | 0.1 to 1 |  |  | 
CCC1(c2cccc(C(F)(F)F)c2)C2=C(CC(C)NC2=O)Nc2n[nH]cc21 (centres unmarked) [Compound 911956] |  |  |  |  | IC50 [1, 11]: ≤ 0.1 µM; IC50 [2, 12]: 0.1 to 1 µM
CCC1(c2cccc(C(F)(F)F)c2)C2=C(CC(c3ccccc3)NC2=O)Nc2n[nH]cc21 (centres unmarked) [Compound 945363] |  |  |  |  | IC50 [1, 11]: 1 to 5 µM; IC50 [2, 12]: > 5 µM
CCC1(c2cccc(N(C(C)=O)C(C)C)c2)C2=C(CC(C)(C)CC2=O)Nc2n[nH]cc21 (centres unmarked) [Compound 893305] |  |  | ≤ 0.1 | ≤ 0.1 | 
CN(C)C(=O)c1ccc(S(=O)(=O)N2CCC3(CC2)C2=C(CC(C)(C)CC2=O)Nc2n[nH]cc23)cc1 [Compound 945659] |  |  |  |  | IC50 [1, 3]: ≤ 0.1 µM; IC50 [2, 4]: ≤ 0.1 µM
CC1(C)CC(=O)C2=C(C1)Nc1n[nH]cc1C21COC2(CN(C(=O)C3CCC(F)C3)C2)C1 (centres unmarked) [Compound 947486] |  |  |  |  | IC50 [1, 11]: ≤ 0.1 µM; IC50 [2, 12]: ≤ 0.1 µM
CC1(C)CC(=O)C2=C(C1)Nc1n[nH]cc1C21CC(c2ccccc2)C1 (centres unmarked) [Compound 917081] |  |  |  |  | IC50 [1, 3]: ≤ 0.1 µM; IC50 [2, 4]: ≤ 0.1 µM
CCC1(c2cccc(Br)c2)C2=C(CC(C)(C)C(F)C2=O)Nc2n[nH]cc21 (centres unmarked) [Compound 835312] | > 5 | > 5 |  |  | 

Structure (SMILES) | IC50 [1, 5] [µM] | IC50 [2, 6] [µM] | IC50 [1, 7] [µM] | IC50 [2, 8] [µM] | also measured
CCC1(c2cccc(C(F)(F)F)c2)C2=C(CC(C)(C)CC2=O)Nc2n[nH]c(Br)c21 (centres unmarked) [Compound 802358] | ≤ 0.1 | ≤ 0.1 |  |  | 
CC1(C)CC(=O)C2=C(C1)Nc1n[nH]cc1C21CN(C2COC2)C1 [Compound 912076] |  |  |  |  | IC50 [1, 3]: 0.1 to 1 µM; IC50 [2, 4]: 1 to 5 µM
CC1(C)CC(=O)C2=C(C1)Nc1n[nH]cc1C2(C)c1cc(Cl)ccc1Cl (centres unmarked) [Compound 806605] | 1 to 5 | > 5 |  |  | 
CC1(C)CC(=O)C2=C(C1)Nc1n[nH]cc1C21COC2(CN(S(C)(=O)=O)C2)C1 (centres unmarked) [Compound 926808] |  |  |  |  | IC50 [1, 11]: ≤ 0.1 µM; IC50 [2, 12]: ≤ 0.1 µM
Cc1cccc(C2(C)C3=C(CC(C)(C)CC3=O)Nc3n[nH]cc32)c1 (centres unmarked) [Compound 785736] | ≤ 0.1 | 0.1 to 1 |  |  | 
CC1(C)CC(=O)C2=C(C1)Nc1n[nH]cc1C21CN(S(=O)(=O)Cc2ccccc2)C1 [Compound 943543] |  |  |  |  | IC50 [1, 3]: ≤ 0.1 µM; IC50 [2, 4]: ≤ 0.1 µM
COCCN1CC2(C1)C1=C(CC(C)(C)CC1=O)Nc1n[nH]cc12 [Compound 943544] |  |  | > 5 | > 5 | 
CCC1(CC)C2=C(CC(C)(C)CC2=O)Nc2n[nH]cc21 [Compound 810505] |  |  | 1 to 5 | > 5 | 
C[C@@]1(c2ccccc2)C2=C(CC3(CCCC3)CC2=O)Nc2n[nH]cc21 [Compound 792338] | ≤ 0.1 | 0.1 to 1 |  |  | 
CCC1(c2cccc(-c3cnnc(C)c3)c2)C2=C(CC(C)(C)NC2=O)Nc2n[nH]cc21 (centres unmarked) [Compound 943496] |  |  |  |  | IC50 [1, 11]: ≤ 0.1 µM; IC50 [2, 12]: 1 to 5 µM
CC[C@@H]1C[C@]2(CO1)C1=C(CC(C)(C)CC1=O)Nc1n[nH]cc12 [Compound 913215] |  |  |  |  | IC50 [1, 3]: 0.1 to 1 µM; IC50 [2, 4]: 1 to 5 µM
CCC1(c2cccc(-n3ccnc3)c2)C2=C(CC(C)(C)CC2=O)Nc2n[nH]cc21 (centres unmarked) [Compound 874533] | 0.1 to 1 | > 5 |  |  | 
CC1(C)CC(=O)C2=C(C1)Nc1n[nH]cc1C21Cc2ccccc2C1 [Compound 897752] |  |  |  |  | IC50 [1, 3]: ≤ 0.1 µM; IC50 [2, 4]: 0.1 to 1 µM
CC1(C)CC(=O)C2=C(C1)Nc1n[nH]cc1[C@]21COC2(CN(S(C)(=O)=O)C2)C1 [Compound 926823] |  |  |  |  | IC50 [1, 11]: 0.1 to 1 µM; IC50 [2, 12]: 1 to 5 µM
CC(C)(C)Cc1[nH]nc2c1[C@@](C)(c1cccc(S(=O)(=O)N3CCCC3)c1)C1=C(CC(C)(C)NC1=O)N2 [Compound 108794] |  |  |  |  | IC50 [1, 9]: > 5 µM; IC50 [2, 10]: > 5 µM
CC1(C)CC(=O)C2=C(C1)Nc1n[nH]cc1C21CCN(S(=O)(=O)c2ccc(F)cn2)CC1 [Compound 947251] |  |  |  |  | IC50 [1, 3]: 0.1 to 1 µM; IC50 [2, 4]: 0.1 to 1 µM

Now from value to molecule, other results behind:

IC50 [1, 5] [µM] | IC50 [2, 6] [µM] | IC50 [1, 7] [µM] | IC50 [2, 8] [µM] | Structure (SMILES) | also measured
0.1 to 1 | 0.1 to 1 |  |  | CC[C@@]1(c2cccc(S(C)(=O)=O)c2)C2=C(CC(C)(C)NC2=O)Nc2n[nH]c(C(F)(F)F)c21 [Compound 948422] | 
 |  | 1 to 5 | 1 to 5 | CC1(C)CC(=O)C2=C(C1)Nc1n[nH]cc1C21CN(c2ccccn2)C1 [Compound 945477] | 
 |  | ≤ 0.1 | 0.1 to 1 | CC[C@]1(c2cccc(-c3cnn4c3CC(C)(C)CC4)c2)C2=C(CC(C)(C)NC2=O)Nc2n[nH]cc21 [Compound 950564] | 
≤ 0.1 | ≤ 0.1 |  |  | CCC1(c2cccc(-c3cnn(C)c3)c2)C2=C(CC(C)(C)NC2=O)Nc2n[nH]c(C(F)(F)F)c21 (centres unmarked) [Compound 947405] | IC50 [1, 9]: ≤ 0.1 µM; IC50 [2, 10]: 0.1 to 1 µM
 |  | 1 to 5 | > 5 | CC[C@@]1(c2cccc(-c3ccnc(C(F)F)c3)c2)C2=C(CC(C)(C)NC2=O)Nc2n[nH]cc21 [Compound 949388] | 
≤ 0.1 | 0.1 to 1 |  |  | CCC1(c2cccc(C(F)(F)F)c2)C2=C(CCN(c3ccc(F)cc3)C2=O)Nc2n[nH]cc21 (centres unmarked) [Compound 947748] | 
≤ 0.1 | 0.1 to 1 |  |  | CCc1cnccc1-c1cccc([C@]2(CC)C3=C(CC(C)(C)NC3=O)Nc3n[nH]cc32)c1 [Compound 948639] | 
 |  | ≤ 0.1 | ≤ 0.1 | CCC1(c2cccc(Oc3ncccn3)c2)C2=C(CC(C)(C)NC2=O)Nc2n[nH]c(C(F)(F)F)c21 (centres unmarked) [Compound 950323] | 
≤ 0.1 | 0.1 to 1 |  |  | CCC1(c2cccc(Oc3ncccn3)c2)C2=C(CC(C)(C)NC2=O)Nc2n[nH]cc21 (centres unmarked) [Compound 948764] | 
 |  | 0.1 to 1 | 0.1 to 1 | CCC1(c2cccc(C(F)(F)F)c2)C2=C(CCC2=O)Nc2n[nH]cc21 (centres unmarked) [Compound 949639] | 
